Results from patent US6630454B2, “Method and pharmaceutical composition for the treatment of cancer” (priority 2001, dated 2003).

Tests used:
[1] = clinical studies, review (DeVita et al., 1993); cited from earlier work
[2] = test system: C6 and PANC-1 cells; set-up: dose or concentration left out as unconfirmed; conditions: […] μM fluoxetine alone, 24 hours
[3] = highest safe dose used for accepted indications; cited from earlier work
[4] = test system: PANC-1, C6, MCF-7, U2OS and HT1080 cells
Procedure: Studies similar in general to those outlined in the previous section, were conducted with five cell lines selected for this task (PANC-1, C6, MCF-7, U2OS and HT1080), increasing the length of the experiment to 48 hours. The studies were done with DOX and with Vinblastine (VIN or VLB).

Row | SMILES | side effects / dose-limiting toxicity when used as chemosensitizer [1] | effect of fluoxetine alone on cell survival [2] | highest safety limit [3] [µM] | potentiation of the cytotoxic effect of the chemotherapeutic drug [4]
1 | CN1CCN(CCCN2c3ccccc3Sc3ccc(C(F)(F)F)cc32)CC1 [trifluoperazine] | attributed to the inherent toxicity of the chemosensitizer |  |  | 
2 | CNCCC(Oc1ccc(C(F)(F)F)cc1)c1ccccc1 (centres unmarked) [fluoxetine, N-methyl 3-(p-trifluoromethylphenoxy)-3-phenylpropylamine] |  | does not affect cell survival at all | 15 | potentiates the cytotoxic effect
3 | CC/C(=C(\c1ccccc1)c1ccc(OCCN(C)C)cc1)c1ccccc1 [tamoxifen] | attributed to the inherent toxicity of the chemosensitizer |  |  | 
